Test results published in EPA's ToxValDB 9.5.
≈ marks a conversion by molar mass, not a printed value. Where “and” joins values, the source holds several entries; their conditions need not be identical. Identical values can stand only once.

Legend:
[1] = system: Rattus norvegicus; settings: short-term, duration: 28 days, oral
[2] = system: Rattus norvegicus; settings: oral; for NOEL: diet, M/F
[3] = system: Canidae; settings: oral, Beagle
[4] = system: Oryctolagus sp.; settings: acute, dermal
[5] = system: Rattus norvegicus
[6] = system: Rattus norvegicus; remark: listed apart in the source
[7] = system: Canidae; settings: subchronic; duration: 90 days; oral; diet; Beagle
[8] = system: Homo sapiens; settings: clinical, M/F
[9] = system: Rattus norvegicus; settings: M/F
[10] = system: Mus musculus; settings: short-term; duration: 14 days; oral; drinking water; M/F; B6C3F1; hepatic
[11] = system: Rattus norvegicus; settings: subchronic; duration: 13 weeks; oral; drinking water; M/F; Sprague-Dawley; metabolic
[12] = chronic, duration: 12 months, capsule, M/F, Decreased bodyweight gains & peripheral redness
[13] = duration: 12 months, capsule, M/F, Decreased bodyweight gains & peripheral redness
[14] = subchronic, duration: 90 days, inhalation, nasal turbinates

For CCCC[C@@H](C)[C@@H](OC(=O)C[C@@H](CC(=O)O)C(=O)O)[C@H](C[C@@H](C)C[C@H](O)CCCC[C@@H](O)C[C@H](O)[C@H](C)N)OC(=O)C[C@@H](CC(=O)O)C(=O)O [Fumonisin B1], the NOEL ([1]; diet, M/F, Fischer 344, Body Weight Changes: decrease + Blood Chemistry: Crn increase, TP increase, Cho increase, TG increase, ALT increase, ALP increase, AST …) was < 99 ppm and the NOEL ([2]; subchronic, duration: 90 days, Fischer 344, Nephrotoxicity) was 0.2 mg/kg-day.

CN1C(=O)[C@]23C[C@H]4C(C)(C)[C@]5(CNc6c5ccc5c6OC=CC(C)(C)O5)C[C@@]41CN2CC[C@@]3(C)O gave an LOAEL ([3]; subchronic, duration: 90 days, capsule / gavage, M/F, Protruding nictitating membranes, dilated pupils, eye redness and decreased indirect pupillary light response) of 0.1 mg/kg-day.

For N#CCCCCC#N [Hexanedinitrile], the LD50 ([4]; occlusive, New Zealand) was 2130 mg/kg, the LC50 ([5]; acute, inhalation, Sprague-Dawley) was 1.71 µg/mL (≈ 15.8 µM) and the LD50 ([5]; acute, oral, gavage, Crl:CD(SD)) was 138 mg/kg and 301 mg/kg. For the same molecule, the NOAEL ([5]; developmental, duration: 14 days, oral, gavage, Sprague-Dawley) was > 80 mg/kg-day and the NOAEL ([6]; subchronic, duration: 13 weeks, inhalation, whole body, M/F, Crl:CD(SD), Hematologic) was 31 mg/m3.

In the case of Cc1c(Cc2cc(C(C)(C)C)c(O)c(C(C)(C)C)c2)c(C)c(Cc2cc(C(C)(C)C)c(O)c(C(C)(C)C)c2)c(C)c1Cc1cc(C(C)(C)C)c(O)c(C(C)(C)C)c1 [Ionox 330], the NOAEL [7] is reported as 185 mg/kg-day, the LD50 ([5]; acute, dermal, semiocclusive) is reported as > 2000 mg/kg and the LD50 ([5]; acute, injection, intraperitoneal, Sprague-Dawley) is reported as > 1000 mg/kg. For the same molecule, the LD50 ([5]; acute, oral, Carworth 'E' and 'N' strains) was > 5000 mg/kg, the NOAEL ([5]; subchronic, duration: 90 days, oral, diet) was > 960 mg/kg-day and the NOAEL ([5]; subchronic, duration: 90 days, oral, diet, albino) was 480 mg/kg-day.

In the case of [I-].[Na+] [Sodium iodide], the NOAEL ([8]; duration: 14 days, oral, endocrine) is reported as 0.01 mg/kg-day.

For CC(=O)c1ccccc1 [Acetophenone], the NOAEL ([9]; subchronic, oral, general toxicity) was 423 mg/kg-day and the NOAEL ([6]; reproduction developmental, oral, gavage, M/F, Sprague-Dawley) was 225 mg/kg-day.

For FC(F)(F)c1ccc(Cl)c(Cl)c1 [1,2-Dichloro-4-(trifluoromethyl)benzene], the LD50 [4] was > 5000 mg/kg, the LD50 ([4]; occlusive) was 5000 mg/kg and the LD50 ([5]; acute, oral, CF Nelson) was 1150 mg/kg. The NOAEL ([5]; short-term, duration: 28 days, oral, diet, Sprague-Dawley) was 20 ppm and the NOAEL ([6]; short-term, duration: 14 days, oral, gavage, M/F, Albino CD) was 60 mg/kg-day.

Molecule COC[C@H]1O[C@@H](OC2OC[C@@H]3O[C@]4(O[C@H]3[C@H]2OC(=O)C(C)C)O[C@H](C)[C@@](O)(C(C)=O)[C@@H]2OCO[C@H]24)[C@@H](OC)[C@@H](O)[C@@H]1O[C@@H]1O[C@H](C)[C@H](OC)[C@H](O[C@H]2C[C@@]3(C)OC4(C[C@@H](O)[C@H](O[C@H]5C[C@@H](O)[C@H](OC(=O)c6c(C)c(Cl)c(O)c(Cl)c6OC)[C@@H](C)O5)[C@@H](C)O4)O[C@@H]3[C@@H](C)O2)[C@H]1O (some centres undefined) [Avilamycin] has an NOEL ([2]; reproduction developmental, duration: 2 years, Sprague-Dawley, no effects) of 150 mg/kg-day.

Molecule CC[C@H]1OC(=O)C[C@@H](O)[C@H](C)[C@@H](O[C@@H]2O[C@H](C)[C@@H](O)[C@H](N(C)C)[C@H]2O)[C@@H](CCN2C[C@H](C)C[C@H](C)C2)C[C@@H](C)C(=O)/C=C/C(C)=C/[C@@H]1CO[C@@H]1O[C@H](C)[C@@H](O)[C@@H](OC)[C@H]1OC [Tilmicosin] has an LOEL [3, 12] of 12 mg/kg-day, an NOEL [3, 12] of 4 mg/kg-day and an LOEL [3, 13] of 12 mg/kg-day. For the same molecule, the NOEL [3, 13] was 4 mg/kg-day.

With c1ccc([C@H]2CN3CCSC3=N2)cc1 [Levamisole] the LOEL ([3]; immunotoxicology, duration: 14 months, capsule, Re-emergence of haemolytic anaemia) was 1.25 mg/kg-day.

[Sb] [Antimony] gave an LOAEL ([9]; chronic, oral, longevity, blood glucose, and cholesterol) of 0.35 mg/kg-day, an LOAEL ([6]; chronic, duration: 2 years, oral, drinking water, M/F, Long-Evans, Whole Body Effects) of 0.35 mg/kg-day and an NOAEL [10] of 99 mg/kg-day. It also gave an NOAEL [11] of 0.06 mg/kg-day.

Work on ClCC1CO1 (centres undefined) [Epichlorohydrin] yielded an LOAEL [9, 14] of 95 mg/m3, an NOAEL [9, 14] of 19 mg/m3 and an LOAEL ([6]; reproduction developmental, duration: 23 days, oral, gavage, M, Long-Evans, reproductive) of 6.25 mg/kg-day.

Molecule c1ccc2c(c1)oc1ccccc12 [Dibenzofuran] has an NOEL ([1]; gavage, F, Sprague-Dawley, Clinical Observation: Locomotor activity decrease, Salivation Soiled perineal region + Body Weight Changes: decrease + Urinalysis: Volume …) of 40 mg/kg-day, an NOAEL ([1]; gavage, M/F, Sprague-Dawley, Clinical Observation: Locomotor activity decrease, Salivation Soiled perineal region + Body Weight Changes: decrease + Urinalysis: Volume …) of 40 mg/kg-day and an LOAEL ([6]; chronic, duration: 200 days, oral, diet, F, albino, Whole Body Effects) of 12.3 mg/kg-day.

Molecule O=S=O [Sulfur dioxide] has an LOAEL ([8]; duration: 1 days, inhalation, respiratory) of 0.262 mg/m3.

In the case of CC1(C)C(C=C(Cl)c2ccc(Cl)cc2)C1C(=O)OC(C#N)c1ccc(F)c(Oc2ccccc2)c1 (centres undefined) [Flumethrin], the NOAEL ([2]; developmental, Reduced pup survival and bodyweight gain. Maternal toxicity: salivation) is reported as 0.37 mg/kg-day.

With CCOP(=S)(OCC)ON=C(C#N)c1ccccc1 [Phoxim] the NOEL ([1]; gavage, M/F, Slc: Wistar, Clinical Observation: Salivation + Body Weight Changes: decrease + Hematology: Hgb decrease, , Hct decrease, Plt increase, WBC increase + …) was < 7.5 mg/kg-day, the NOEL ([1]; gavage, M/F, Wistar, Clinical Observation: Salivation + Body Weight Changes: Weight gain decrease + Blood Chemistry: TP increase, ALB increase, A/G increasegamma…) was < 7.5 mg/kg-day and the NOEL ([3]; chronic, duration: 2 years, diet, M/F, Liver effects and inhibition of brain acetylcholinesterase activity) was 0.38 mg/kg-day. It also gave an NOEL ([3]; duration: 2 years, feed, M/F, Liver effects and inhibition of brain acetylcholinesterase activity) of 0.38 mg/kg-day.
